The values below come from US20150225369A1, “DDR2 INHIBITORS FOR THE TREATMENT OF OSTEOARTHRITIS” (Merck Patent GmbH, priority 2012, published 2015).

Molecules are shown by their SMILES. Read-outs that look alike come from different tables or passages of the source.

Test [1] addresses T1, HEK293 transfected with human DDR2 (Homo sapiens, UniProt Q16832).
T1 construct: expressed in transfected cells; host or cells: HEK293 (PLT460F_(DDR2)-P7-1)
T1 sequence (Q16832 22-855): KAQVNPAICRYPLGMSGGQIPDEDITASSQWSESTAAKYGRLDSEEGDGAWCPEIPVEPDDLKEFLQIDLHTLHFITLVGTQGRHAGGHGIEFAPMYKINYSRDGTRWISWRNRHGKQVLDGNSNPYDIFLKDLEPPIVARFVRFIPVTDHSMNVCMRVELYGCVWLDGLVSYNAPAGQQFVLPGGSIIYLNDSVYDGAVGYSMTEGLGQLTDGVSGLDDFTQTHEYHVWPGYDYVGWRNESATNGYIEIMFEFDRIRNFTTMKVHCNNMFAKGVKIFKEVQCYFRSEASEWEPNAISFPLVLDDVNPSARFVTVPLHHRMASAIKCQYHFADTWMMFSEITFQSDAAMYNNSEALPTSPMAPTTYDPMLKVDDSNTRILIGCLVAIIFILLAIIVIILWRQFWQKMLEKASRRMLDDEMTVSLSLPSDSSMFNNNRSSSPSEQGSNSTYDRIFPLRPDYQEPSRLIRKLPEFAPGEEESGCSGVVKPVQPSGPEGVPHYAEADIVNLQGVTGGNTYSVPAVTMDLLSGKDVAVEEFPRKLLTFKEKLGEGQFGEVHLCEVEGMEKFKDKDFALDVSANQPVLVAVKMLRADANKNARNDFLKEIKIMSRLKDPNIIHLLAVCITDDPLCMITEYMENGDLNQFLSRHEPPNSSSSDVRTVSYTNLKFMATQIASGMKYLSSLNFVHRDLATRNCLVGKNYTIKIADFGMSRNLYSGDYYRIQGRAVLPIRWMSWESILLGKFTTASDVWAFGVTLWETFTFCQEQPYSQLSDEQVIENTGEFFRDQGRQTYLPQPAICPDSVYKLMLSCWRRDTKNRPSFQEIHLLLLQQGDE
In words: Phospho-DDR2 cellular assay (collagen II induced DDR2 phosphorylation, ELISA). It counts as cell-based. The settings on record: read-out: IC50 [p-DDR2]. How it is done:
Assays were performed in a 384 well plate format, using cell line HEK293 transfected with human DDR2 (PLT460F_(DDR2)-P7-1)
Cells were seeded at a density of 10'000 cells/well in 384well poly-D-lysine coated Black/clear plate (Cellcoat Greiner) and incubated in DMEM medium in the presence of 10% fetal bovine serum at 37° C., 5% CO2 for 48 h. Medium was replaced by serum-free medium and cells were incubated at 37° C., 5% CO2 for 8 h. Compound to be tested in 5% DMSO or 5% DMSO and 50 μg/ml of chicken collagen II were added and cells were incubated at 37° C., 5% CO2 for 16 h
Cells were rinsed with ice-cold PBS, lysed with lysis buffer (M-PER Thermo #78501) for 30 min at room temperature and centrifuged for 1 min at 1000 RPM. In parallel, White High binding 384 well plates (Corning) were coated with mouse anti-human DDR2 capture antibody (R&D Systems kit DuoSet IC Human phospho-DDR2 ELISA), overnight at RT.
An aliquot of cell lysate was transferred to the coated plates and incubated for 2 h at RT. Plates were washed and mouse anti-phospho-tyrosine detection antibody (R&D Systems kit DuoSet IC Human phospho-DDR2 ELISA) conjugated to horse radish peroxidase (HRP) was added for 2 h at RT. Plates were washed and chemiluminescent substrate for HRP (Thermo) was added for 15 min at RT. Luminescence was measured on a luminometer.

The target in test [2] is T2, His-tagged human recombinant DDR-2 kinase domain (His-TEV-DDR2 467-855 aa) (Homo sapiens, UniProt Q16832).
T2 construct: His-TEV-DDR2 467-855 aa
T2 sequence (Q16832 467-855): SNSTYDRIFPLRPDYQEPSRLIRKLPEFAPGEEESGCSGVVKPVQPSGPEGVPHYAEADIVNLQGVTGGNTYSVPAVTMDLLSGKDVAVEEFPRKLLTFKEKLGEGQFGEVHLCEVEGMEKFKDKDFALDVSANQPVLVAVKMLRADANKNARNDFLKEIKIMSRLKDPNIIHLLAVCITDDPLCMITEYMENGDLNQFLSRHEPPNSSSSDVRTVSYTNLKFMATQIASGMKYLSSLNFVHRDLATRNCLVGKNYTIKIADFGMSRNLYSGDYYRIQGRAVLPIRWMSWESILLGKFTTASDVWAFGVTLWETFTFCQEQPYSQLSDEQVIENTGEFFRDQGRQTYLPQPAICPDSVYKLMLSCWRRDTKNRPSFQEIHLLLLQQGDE
As to the kind of experiment: Autophosphorylation assay for biochemical activity testing of DDR2 (HTRF). The conditions noted are these: biochemical DDR2 autophosphorylation. The method in brief:
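Phospho-tyrosine was detected by HTRF between XL665 anti-6His and cryptate anti-phosphotyrosine PT66 antibodies, using the emission ratio. Inhibition was referenced to the inhibitor-free reaction.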

In the case of `CNC(=O)c1cc(Oc2ccc(CNC(=O)Nc3ccc(Cl)c(Cl)c3)cc2)ccn1` [compound 3], the IC50 in test [1] (cellular phospho-DDR2) was found to be 195 nM.

`Cn1cc(C(F)(F)F)cc(NC(=O)NCc2ccc(Oc3ccnc4c3CNC(=O)N4)cc2)c1=O` [compound 5]: in test [1] (HEK293 transfected with human DDR2, 50 μg/ml chicken collagen II, 16 h), the IC50 turned out to be 5.9 nM.

As to `CNC(=O)c1cc(Oc2ccc(CNC(=O)Nc3ccc(Cl)cc3Cl)cc2)ccn1` [compound 8], the IC50 in test [1] (cellular phospho-DDR2) was determined as 255 nM.

Take `CNC(=O)c1cc(Oc2ccc(CNC(=O)Nc3ccc(F)cc3)cc2)ccn1` [compound 12]: in test [1] (cellular phospho-DDR2), the IC50 was 775 nM.

For the compound `CNC(=O)c1cc(Oc2ccc(CNC(=O)Nc3cc(Cl)c(Cl)cc3Cl)cc2)ccn1` [compound 23], the IC50 in test [1] (cellular phospho-DDR2) was 100 nM.

Take `CNC(=O)c1cc(Oc2ccc(CNC(=O)Nc3cc(Cl)cc(Cl)c3)cc2)ccn1` [compound 31]: in test [1] (cellular phospho-DDR2), the IC50 was 175 nM.

Consider `CNC(=O)c1cc(Oc2ccc(CNC(=O)Nc3ccc(OC)c(Cl)c3)cc2)ccn1` [compound 39, 4-{4-[3-(3-Chloro-4-methoxy-phenyl)-ureidomethyl]-phenoxy}-pyridine-2-carboxylic acid methylamide], for which, in test [1] (cellular phospho-DDR2), the half-maximal inhibitory concentration (IC50) is 64 nM.

Turning to `CNC(=O)c1cc(Oc2ccc(CNC(=O)Nc3cc(Cl)ccc3C)cc2)ccn1` [compound 42, 4-{4-[3-(5-Chloro-2-methyl-phenyl)-ureidomethyl]-phenoxy}-pyridine-2-carboxylic acid methylamide], the IC50 in test [1] (cellular phospho-DDR2) turned out to be 230 nM.

For `CNC(=O)c1cc(Oc2ccc(C(C)NC(=O)Nc3cc(Cl)c(Cl)cc3Cl)cc2)ccn1` (centres unmarked) [compound 70, 4-(4-{1-[3-(2,4,5-Trichloro-phenyl)-ureido]-ethyl}-phenoxy)-pyridine-2-carboxylic acid methylamide], the half-maximal inhibitory concentration (IC50) in test [1] (cellular phospho-DDR2) is 735 nM.

Consider `CNC(=O)c1cc(Oc2ccc(C(C)NC(=O)Nc3ccc(Cl)c(Cl)c3)cc2)ccn1` (centres unmarked) [compound 71, 4-(4-{1-[3-(3,4-Dichloro-phenyl)-ureido]-ethyl}-phenoxy)-pyridine-2-carboxylic acid methylamide], for which the half-inhibitory concentration (IC50) in test [1] (cellular phospho-DDR2) stood at 1800 nM.

Regarding `CNC(=O)c1cc(Oc2ccc(C(C)NC(=O)Nc3ccc(C)c(Cl)c3)cc2)ccn1` (centres unmarked) [compound 73, 4-(4-{1-[3-(3-Chloro-4-methyl-phenyl)-ureido]-ethyl}-phenoxy)-pyridine-2-carboxylic acid methylamide], the concentration for half-maximal inhibition (IC50) in test [1] (cellular phospho-DDR2) turned out to be 1750 nM.

`CCOc1ccc(C(F)(F)F)cc1NC(=O)NCc1ccc(Oc2ccnc(C(=O)NC)c2)c(C)c1` [compound 229, 4-{4-[3-(2-Ethoxy-5-trifluoromethyl-phenyl)-ureidomethyl]-2-methyl-phenoxy}-pyridine-2-carboxylic acid methylamide]: in test [2], the IC50 was 84 nM.

Take `CCOc1ccc(C(F)(F)F)cc1NC(=O)NCc1ccc(Oc2ccnc(C(=O)NC)c2)cc1` [compound 230, 4-{4-[3-(2-Ethoxy-5-trifluoromethyl-phenyl)-ureidomethyl]-phenoxy}-pyridine-2-carboxylic acid methylamide]: in test [2], the IC50 stood at 89 nM.

With `CNC(=O)c1cc(Oc2ccc(CNC(=O)Nc3cc(C(F)(F)F)c(Cl)cc3OC)cc2F)ccn1` [compound 231, 4-{4-[3-(4-Chloro-2-methoxy-5-trifluoromethyl-phenyl)-ureidomethyl]-2-fluoro-phenoxy}-pyridine-2-carboxylic acid methylamide], the IC50 in test [2] came to 100 nM.

In the case of `CNC(=O)c1cc(Oc2ccc(CNC(=O)Nc3cc(C(F)(F)F)c(Cl)cc3OCCN3C(=O)c4ccccc4C3=O)cc2)ccn1` [compound 242, 4-[4-(3-{4-Chloro-2-[2-(1,3-dioxo-1,3-dihydro-isoindol-2-yl)-ethoxy]-5-trifluoromethyl-phenyl}-ureidomethyl)-phenoxy]-pyridine-2-carboxylic acid methylamide], in test [2], the half-maximal inhibitory concentration (IC50) is 440 nM.

With `CNC(=O)c1cc(Oc2ccc(CNC(=O)Nc3cc(C)c(Cl)cc3OCCN(C)C(=O)OC(C)(C)C)cc2)ccn1` [compound 244, [2-(5-Chloro-4-methyl-2-{3-[4-(2-methylcarbamoyl-pyridin-4-yloxy)-benzyl]-ureido}-phenoxy)-ethyl]-methyl-carbamic acid tert-butyl ester], the IC50 in test [2] worked out at 620 nM.

As to `O=C(NCc1ccc(Oc2ccncc2)cc1)Nc1ccccc1` [compound 245, 1-Phenyl-3-[4-(pyridin-4-yloxy)-benzyl]-urea], in test [2], the half-inhibitory concentration (IC50) was 9200 nM.

Turning to `Cc1cc(NC(=O)NCc2ccc(Oc3ccncc3)c(C)c2)c(OCCN(C)C)cc1Cl` [compound 246, 1-[4-Chloro-2-(2-dimethylamino-ethoxy)-5-methyl-phenyl]-3-[3-methyl-4-(pyridin-4-yloxy)-benzyl]-urea], the 50% inhibitory concentration (IC50) in test [2] came to 230 nM.

Turning to `CC(=O)Nc1cc(Oc2ccc(CNC(=O)Nc3cc(C)c(Cl)cc3OCCN(C)C)cc2C)ccn1` [compound 247, N-[4-(4-{3-[4-Chloro-2-(2-dimethylamino-ethoxy)-5-methyl-phenyl]-ureidomethyl}-2-methyl-phenoxy)-pyridin-2-yl]-acetamide], the half-maximal inhibitory concentration (IC50) in test [2] came to 6 nM.

`COc1cc(Cl)c(C)cc1NC(=O)NCc1ccc(Oc2ccncc2)c(C)c1` [compound 248, 1-(4-Chloro-2-methoxy-5-methyl-phenyl)-3-[3-methyl-4-(pyridin-4-yloxy)-benzyl]-urea]: in test [2], the IC50 stood at 770 nM.

On to `Cc1cc2nccc(Oc3ccc(CNC(=O)Nc4ccccc4)cc3)c2o1` [compound 249, 1-[4-(2-Methyl-furo[3,2-b]pyridin-7-yloxy)-benzyl]-3-phenyl-urea], for which the IC50 in test [2] was 650 nM.

On to `Cc1cc(NC(=O)NCc2ccc(Oc3ccncn3)c(C)c2)c(OCCN(C)C)cc1Cl` [compound 250, 1-[4-Chloro-2-(2-dimethylamino-ethoxy)-5-methyl-phenyl]-3-[3-methyl-4-(pyrimidin-4-yloxy)-benzyl]-urea], for which, in test [2], the IC50 amounted to 1200 nM.

As for `Cc1cc(NC(=O)NCc2ccc(Oc3cc(N)ncn3)c(C)c2)c(OCCN(C)C)cc1Cl` [compound 251, 1-[4-(6-Amino-pyrimidin-4-yloxy)-3-methyl-benzyl]-3-[4-chloro-2-(2-dimethylamino-ethoxy)-5-methyl-phenyl]-urea], in test [2], the IC50 came out at 440 nM.

On to `COc1cc(Cl)c(C)cc1NC(=O)NCc1ccc(Oc2ccnc3cc(C)oc23)c(C)c1` [compound 252, 1-(4-Chloro-2-methoxy-5-methyl-phenyl)-3-[3-methyl-4-(2-methyl-furo[3,2-b]pyridin-7-yloxy)-benzyl]-urea], for which the IC50 in test [2] was found to be 750 nM.

In the case of `Cc1cc2nccc(Oc3ccc(CNC(=O)Nc4cc(C)c(Cl)cc4OCCN(C)C)cc3C)c2o1` [compound 253, 1-[4-Chloro-2-(2-dimethylamino-ethoxy)-5-methyl-phenyl]-3-[3-methyl-4-(2-methyl-furo[3,2-b]pyridin-7-yloxy)-benzyl]-urea], in test [2], the half-inhibitory concentration (IC50) came out at 70 nM.

With `Cc1cc(NC(=O)NCc2ccc(Oc3ccnc(N)c3)c(C)c2)c(OCCN(C)C)cc1Cl` [compound 254, 1-[4-(2-Amino-pyridin-4-yloxy)-3-methyl-benzyl]-3-[4-chloro-2-(2-dimethylamino-ethoxy)-5-methyl-phenyl]-urea], the concentration for half-maximal inhibition (IC50) in test [2] was 31 nM.
